Test results as given in US4705753A, “Biologically active acrylonitrile-based copolymeric membrane” (priority 1984, dated 1987).

Biological target: glucose isomerase (GI) from Streptomyces albus, purified, covalently immobilized on acrylonitrile copolymer membrane (Streptomyces albus G, UniProt P24299)
Settings: substrate glucose; membrane-bound GI; 70° C., pH 6.8 maleate buffer, 7 mM MgSO4, 3 mM CoSO4

Sequence of glucose isomerase (GI) from Streptomyces albus, purified, covalently immobilized on acrylonitrile copolymer membrane (P24299 whole entry): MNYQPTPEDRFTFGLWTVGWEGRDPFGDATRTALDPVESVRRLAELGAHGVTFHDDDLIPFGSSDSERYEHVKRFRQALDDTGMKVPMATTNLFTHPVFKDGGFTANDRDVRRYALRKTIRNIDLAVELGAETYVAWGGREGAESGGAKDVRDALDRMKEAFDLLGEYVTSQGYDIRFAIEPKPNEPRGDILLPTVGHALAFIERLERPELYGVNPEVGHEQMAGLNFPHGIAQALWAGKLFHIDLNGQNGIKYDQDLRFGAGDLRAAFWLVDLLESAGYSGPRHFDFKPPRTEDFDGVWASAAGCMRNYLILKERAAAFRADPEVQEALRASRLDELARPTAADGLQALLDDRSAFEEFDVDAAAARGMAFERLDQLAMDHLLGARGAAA

With `OC[C@H]1OC(O)[C@H](O)[C@@H](O)[C@@H]1O` (stereo partly shown) [glucose] as the molecule, how does the “Vmax for the immobilized GI” value read?
The value was roughly 15 µmol/min/mg.
